Target: T1, PMS2 protein (Homo sapiens, UniProt P54278)
T1 construct: host or cells: SW620 human colorectal carcinoma cells
T1 sequence (P54278 1-862): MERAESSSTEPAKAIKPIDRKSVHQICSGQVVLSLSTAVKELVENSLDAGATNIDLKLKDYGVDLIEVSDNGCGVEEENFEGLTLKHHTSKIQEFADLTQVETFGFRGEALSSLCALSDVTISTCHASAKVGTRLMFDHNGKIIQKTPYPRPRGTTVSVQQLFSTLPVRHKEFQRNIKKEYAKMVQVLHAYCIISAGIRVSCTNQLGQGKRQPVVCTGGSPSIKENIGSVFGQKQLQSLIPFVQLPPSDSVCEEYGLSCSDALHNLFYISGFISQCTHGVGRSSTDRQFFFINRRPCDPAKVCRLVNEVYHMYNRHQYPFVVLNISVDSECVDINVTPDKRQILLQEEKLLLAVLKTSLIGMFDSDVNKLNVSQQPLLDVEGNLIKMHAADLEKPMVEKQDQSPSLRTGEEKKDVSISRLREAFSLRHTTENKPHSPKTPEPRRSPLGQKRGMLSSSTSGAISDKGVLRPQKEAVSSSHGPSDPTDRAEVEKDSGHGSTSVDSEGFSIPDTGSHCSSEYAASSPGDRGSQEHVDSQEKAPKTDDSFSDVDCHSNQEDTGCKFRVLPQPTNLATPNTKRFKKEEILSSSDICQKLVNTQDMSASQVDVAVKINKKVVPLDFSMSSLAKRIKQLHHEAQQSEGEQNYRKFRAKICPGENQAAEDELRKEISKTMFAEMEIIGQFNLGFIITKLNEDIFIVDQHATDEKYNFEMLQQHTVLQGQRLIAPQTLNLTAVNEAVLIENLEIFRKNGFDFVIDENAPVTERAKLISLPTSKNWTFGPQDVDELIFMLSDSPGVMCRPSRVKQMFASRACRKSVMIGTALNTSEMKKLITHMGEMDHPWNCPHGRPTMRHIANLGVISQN
Experiment: PROTAC screening in SW620 human colorectal carcinoma cells, PMS2 protein level by JESS Western blot
Format: cell-based
Conditions: SW-620, 24 h, 1 uM compound, normalised to actin and DMSO control, Table A1
Experimental: PROTAC Screening Protocol Using SW620 Human Colorectal Carcinoma Cells
SVW620 cells (ATCC/[…]) were cultured in T75 Falcon flasks in culture media (F12/DMEM 1:1 media, 10% FCS, +L-G supplement). Cells were split twice a week, for a maximum of 6 weeks. Media was aspirated, and cells washed with 10 mL of sterile PBS. PBS was aspirated, and cells incubated with 1.5 mL TrypLE for up to 5 minutes at 37° C., 5% CO2. Once cells had detached, TrypLE was neutralised with 10 mL culture media and cells mixed 1:1 with Trypan blue and quantified using a Luna cell counter. Cells were then seeded into fresh T75 flasks with 1×10^6 cells and 10 mL culture media.
SW620 cells, cultured and counted as above, were used to seed 12 well plates at a density of 1.5×10^5 cells/well and incubated overnight at 37° C., 5% CO2. Test compounds were solubilized in DMSO to a stock concentration of 10 mM and serially diluted in DMSO and media to their test concentration; the final concentration of DMSO was 0.1% (v/v). Each concentration was tested in triplicate. SW620 cells were incubated with test compound for 24 hours at 37° C., 5% CO2. Media was aspirated from each well, and each well washed with 1 mL ice cold PBS. PBS was then aspirated, and 50 μL of cold lysis buffer (RIPA buffer supplemented with 1× protease inhibitors, Benzonase, MgCl) was added to each well; plates were then incubated on ice for 5 minutes. Cells were scraped using a pipette tip before being transferred to a fresh Eppendorf. Samples were spun at maximum speed in a benchtop centrifuge for 5 minutes at 4° C. and supernatant was then transferred to fresh tubes. Samples were stored at −80° C. until analysis.
Bicinchonininic acid (BCA) protein assay standards (2-0.125 mg/mL BSA) were prepared in advance. 6 μL of each standard was pipetted in duplicate into rows A and B of a 384-well assay plate. Test samples were diluted in lysis buffer (1:3-1:10) in a 384-well plate in duplicate. BCA Reagents were combined 50:1, Part A:Part B and 50 μL added to each well. Plates were incubated for 30 min at 37° C. in a plate incubator and read using a BCA protein 384 protocol on an EnSpire plate reader. Protein concentrations were calculated from a standard curve.
JESS Western Blot Protocol
Protein lysates were prepared using Protein Simple EZ standard pack reagents: 40 μL distilled H2O was added to a DTT tube (clear) and treated with 20 μL 10× sample buffer and 20 μL DTT to 5×MM tube (pink). 20 μL dH2O was added to biotinylated ladder tube (green).
Test samples were prepared by dilution to the required concentration (0.1 mg/mL) in 0.1× sample buffer. 1.25 μL 5× fluorescent master mix from the EZ standard pack was added to 5 μL sample for each lane to be loaded (e.g. 2.5 μL+10 μL if loading same sample into 2 wells). Samples were vortexed, briefly spun down and heated at 95° C. for 5 min in a PCR machine then vortexed again and briefly spun down before loading onto JESS cassettes (catalogue No: SM-W004) according to manufacturer's instructions (https://www.proteinsimple.com/technical_library.html?product=simplewestern&def_list=list). Protein expression was determined by the peak area of the target protein signal. Peak area of the target protein was normalised to peak area of the loading control (actin) and to DMSO control.

remaining activity at 1 µM [%] | SMILES
< 10 | Cc1ncsc1-c1ccc(CNC(=O)[C@@H]2C[C@@H](O)CN2C(=O)[C@@H](NC(=O)CCCCCC(=O)N2CCN(Cc3ccc4c(c3)CN(C(=O)c3c(O)cc(O)c(C)c3OCC3CCCCC3)C4)CC2)C(C)(C)C)cc1 [Example 26, (2S,4R)-1-[(2S)-2-[[7-[4-[[2-[2-(Cyclohexylmethoxy)-4,6-dihydroxy-3-methyl-benzoyl]isoindolin-5-yl]methyl]piperazin-1-yl]-7-oxo-heptanoyl]amino]-3,3-dimethyl-butanoyl]-4-hydroxy-N-[[4-(4-methylthiazol-5-yl)phenyl]methyl]pyrrolidine-2-carboxamide]
< 10 | Cc1ncsc1-c1ccc(CNC(=O)[C@@H]2C[C@@H](O)CN2C(=O)[C@@H](NC(=O)CCCCCCC(=O)N2CCN(Cc3ccc4c(c3)CN(C(=O)c3c(O)cc(O)c(C)c3OCC3CCCCC3)C4)CC2)C(C)(C)C)cc1 [Example 27, (2S,4R)-1-[(2S)-2-[[8-[4-[[2-[2-(Cyclohexylmethoxy)-4,6-dihydroxy-3-methyl-benzoyl]isoindolin-5-yl]methyl]piperazin-1-yl]-8-oxo-octanoyl]amino]-3,3-dimethyl-butanoyl]-4-hydroxy-N-[[4-(4-methylthiazol-5-yl)phenyl]methyl]pyrrolidine-2-carboxamide]
< 10 | Cc1ncsc1-c1ccc(CNC(=O)[C@@H]2C[C@@H](O)CN2C(=O)[C@@H](NC(=O)CCCCCCCC(=O)N2CCN(Cc3ccc4c(c3)CN(C(=O)c3c(O)cc(O)c(C)c3OCC3CCCCC3)C4)CC2)C(C)(C)C)cc1 [Example 28, (2S,4R)-1-[(2S)-2-[[9-[4-[[2-[2-(Cyclohexylmethoxy)-4,6-dihydroxy-3-methyl-benzoyl]isoindolin-5-yl]methyl]piperazin-1-yl]-9-oxo-nonanoyl]amino]-3,3-dimethyl-butanoyl]-4-hydroxy-N-[[4-(4-methylthiazol-5-yl)phenyl]methyl]pyrrolidine-2-carboxamide]
< 10 | Cc1ncsc1-c1ccc(CNC(=O)[C@@H]2C[C@@H](O)CN2C(=O)[C@@H](NC(=O)CCCCCCCCC(=O)N2CCN(Cc3ccc4c(c3)CN(C(=O)c3c(O)cc(O)c(C)c3OCC3CCCCC3)C4)CC2)C(C)(C)C)cc1 [Example 29, (2S,4R)-1-[(2S)-2-[[10-[4-[[2-[2-(Cyclohexylmethoxy)-4,6-dihydroxy-3-methyl-benzoyl]isoindolin-5-yl]methyl]piperazin-1-yl]-10-oxo-decanoyl]amino]-3,3-dimethyl-butanoyl]-4-hydroxy-N-[[4-(4-methylthiazol-5-yl)phenyl]methyl]pyrrolidine-2-carboxamide]
< 10 | Cc1ncsc1-c1ccc(CNC(=O)[C@@H]2C[C@@H](O)CN2C(=O)[C@@H](NC(=O)CCCCCCCCCC(=O)N2CCN(Cc3ccc4c(c3)CN(C(=O)c3c(O)cc(O)c(C)c3OCC3CCCCC3)C4)CC2)C(C)(C)C)cc1 [Example 30, (2S,4R)-1-[(2S)-2-[[11-[4-[[2-[2-(Cyclohexylmethoxy)-4,6-dihydroxy-3-methyl-benzoyl]isoindolin-5-yl]methyl]piperazin-1-yl]-11-oxo-undecanoyl]amino]-3,3-dimethyl-butanoyl]-4-hydroxy-N-[[4-(4-methylthiazol-5-yl)phenyl]methyl]pyrrolidine-2-carboxamide]

— US20240425483A1, “INDOLINES AS PROTAC COMPOUNDS” (NeoPhore Limited, priority 2021, published 2024)
